Measured values from US8178506B2, “Oligomeric compounds and compositions for use in modulation of small non-coding RNAs” (Regulus Therapeutics Inc., priority 2003, dated 2012).

How the values were obtained:
[1] = test system: 3′-UTR of the LIM domain only 4 (LMO4) gene; experiment: pGL3-LMO4 luciferase assay in HeLa cells; type: cell-based, human; conditions: 48 hours
Excerpt: In one embodiment, an expression system based on the pGL3-Control (Promega Corp., Madison Wis.) vector containing a CMV promoter controlling expression of a luciferase reporter sequence was used in transient transfections of HeLa cells with plasmids expressing miRNA or pri-miRNA mimics. To assess the ability of miRNA mimics to bind and regulate the expression of the luciferase reporter gene, two reporter plasmids were constructed: 1) a synthetic DNA fragment comprising two sites perfectly complementary to mir-143 were inserted into the pGL3-Control luciferase reporter vector, to create the pGL3-mir-143 sensor plasmid, and 2) a DNA fragment comprising the 3′-UTR of the LIM domain only 4 (LMO4) gene (predicted to be regulated by mir-143) was inserted into pGL3-Control to create pGL3-LMO4; this fragment was PCR-amplified using a primer beginning at position 1261 of the LMO4 sequence (GenBank Accession NM_006769.2, incorporated herein as SEQ ID: 809) and the downstream primer hybridizing to the poly-A tail. In each of these plasmids, the target site was placed downstream of the luciferase coding sequence and upstream of the polyadenylation signal in the 3′-UTR of the luciferase reporter vector. The unmodified pGL3-Control luciferase reporter vector was used as a control.
HeLa cells were routinely cultured and passaged as described, and on the day before transfection with expression or reporter plasmids, the HeLa cells were seeded onto 24-well plates 50,000 cells/well. Cells were transfected according to standard published procedures with various combinations of plasmids using 2 μg Lipofectamine™ 2000 Reagent (Invitrogen) per μg of plasmid DNA, or, when transfecting oligomeric compounds, 1.25 μg of Lipofectamine™ 2000 Reagent per 100 nM oligonucleotide or double-stranded RNA. The luciferase signal in each well was normalized to the Renilla luciferase (RL) activity produced from a co-transfected plasmid, pRL-CMV, which was transfected at 0.5 μg per well. […]

[2] = test system: mir-143 binding site within the coding sequence of ERK5; experiment: pGL3-ERK5-cds luciferase assays in HeLa cells; type: cell-based, human; conditions: for luciferase expression: HeLa cells, 24 hours
Protocol: An expression system based on the pGL3-Control (Promega Corp., Madison Wis.) reporter vector and comprising predicted miRNA binding sites was used in transient transfections of HeLa cells with plasmids expressing oligomeric compounds mimicking miRNAs, pre-miRNAs or pri-miRNAs in order to assess the ability of these miRNA mimics to bind and regulate the expression of the luciferase reporter. The effect of increasing the copy number of the miRNA-binding site in the target was also tested by including multiple binding sites in artificial reporter constructs. It is understood that the presence of multiple miRNA-binding sites in a target can include binding sites for different miRNAs.
The following reporter plasmids were constructed by cloning the specified fragment into the XbaI site of the pGL3-control plasmid, placing the potential miRNA-binding site in the 3′-UTR of the luciferase reporter: The reporter plasmid pGL3-bulge(×3) contains three contiguous copies of the sequence ([…]; herein incorporated as SEQ ID NO: 874) which represents a sequence complementary to the mir-143 miRNA except that it is missing 2 nucleotides such that the mir-143 miRNA is presumed to adopt a bulged structure when it hybridizes to this target sequence. The pGL3-GLO1 reporter plasmid contains a DNA fragment comprising the 3′-UTR of the GLO1 sequence; this fragment was PCR-amplified using a primer beginning at nucleotide number 621 of the GLO1 sequence (GenBank Accession NM_006708.1, SEQ ID NO: 821) and the downstream primer hybridizing to the poly A tail. The pGL3-PP2A reporter plasmid contains a DNA fragment comprising the 3′-UTR of the PP2A gene; this fragment was PCR-amplified using a primer beginning at nucleotide number 921 of the PP2A sequence (GenBank Accession NM_004156.1) and the downstream primer hybridizing to the poly A tail. The reporter plasmid pGL3-ERK5-3′-UTR(×1) contains one copy of the sequence […] (herein incorporated as SEQ ID NO: 875), found in the 3′-UTR of ERK5 and predicted by Lewis, et al. to be bound by the mir-143 miRNA, and the reporter plasmid pGL3-ERK5-3′UTR(×3) has three contiguous copies of this sequence. The reporter plasmid pGL3-ERK5-3′UTR(ext) contains one copy of the sequence […] (herein incorporated as SEQ ID NO: 876), which includes an additional ten nucleotides at either end of the mir-143 binding site in 3′-UTR of ERK5 predicted by Lewis, et al. (Lewis et al., Cell, 2003, 115, 787-798). The plasmids pGL3-ERK5-cds(×1), pGL3-ERK5-cds(×2), pGL3-ERK5-cds(×3), and pGL3-ERK5-cds(×5) contain one, two, three or five contiguous copies, respectively, of the novel mir-143 binding site ([…]; herein incorporated as SEQ ID NO: 877) we identified within the coding sequence of ERK5. The unmodified pGL3-Control luciferase reporter vector was used as a negative control, and the pGL3-mir-143 sensor reporter plasmid was used as a positive control.
HeLa cells were routinely cultured and passaged as described. In some embodiments, HeLa cells were transfected with 0.05 μg of the relevant pGL3-sensor plasmid and 0.01 μg pRL-CMV plasmid. Additionally, in some embodiments, cells were treated at various dosages (11 nM, 33 nM, and 100 nM) with the following oligomeric compound mimics: 1) ds-mir-143, or 2) ds-Control as described. In accordance with methods described in Example 12, a luciferase assay was performed 24-hours after transfection. The results, shown in Tables 40 and 41, are an average of three trials. Data are presented as percent untreated control (luciferase plasmid only, not treated with oligomeric compound) luciferase expression, normalized to pRL-CMV levels.

Q: How did the “luciferase expression (% lucif. only control)” value ([1]; 4 nM) turn out when “ds-mir-143: double-stranded RNA of ISIS 342199 hybridized to its perfect complement ISIS 342200 (sense UGAGAUGAAGCACUGUAGCUCA; antisense UGAGCUACAGUGCUUCAUCUCA; RNA, backbone not given here)” was run?
A: 151.6 % lucif. only control

Q: What about the “luciferase expression (% lucif. only control)” value ([1]; 20 nM) of the same substance?
A: 140.1 % lucif. only control

Q: What about the “luciferase expression (% lucif. only control)” value ([1]; 100 nM) of the same substance?
A: 128.4 % lucif. only control

Q: And the “luciferase expression from pGL3-ERK5-cds(×1) or pGL3-ERK5-cds(×2)” value ([2]; HeLa, 100 nM)?
A: did reduce luciferase expression

Q: What about the “luciferase activity from pGL3-ERK5-cds(×3) or pGL3-ERK5-cds(×5)” value ([2]; HeLa, 11, 33 and 100 nM) of the same substance?
A: reduction in luciferase activity

Q: And the “luciferase activity from pGL3-ERK5-cds(×5), dose response” value ([2]; HeLa, 11, 33 and 100 nM)?
A: dose-responsiveness

Q: And the “luciferase activity from pGL3-ERK5-cds(×1) or pGL3-ERK5-cds(×2)” value ([2]; HeLa, 11- or 33 nM)?
A: did not appear to inhibit luciferase activity

Q: What about the luciferase expression ([2]; Table 41, pGL3-ERK5-cds(x1), 11 nM) of the same substance?
A: 101.3 percent untreated control

Q: And the luciferase expression ([2]; Table 41, pGL3-ERK5-cds(x1), 33 nM)?
A: 115.4 percent untreated control

Q: What about the luciferase expression ([2]; Table 41, pGL3-ERK5-cds(x1), 100 nM) of the same substance?
A: 77.4 percent untreated control

Q: And the luciferase expression ([2]; Table 41, pGL3-ERK5-cds(x2), 11 nM)?
A: 92.7 percent untreated control

Q: And the luciferase expression ([2]; Table 41, pGL3-ERK5-cds(x2), 33 nM)?
A: 113.8 percent untreated control

Q: What about the luciferase expression ([2]; Table 41, pGL3-ERK5-cds(x2), 100 nM) of the same substance?
A: 63.6 percent untreated control

Q: What about the luciferase expression ([2]; Table 41, pGL3-ERK5-cds(x3), 11 nM) of the same substance?
A: 73.5 percent untreated control

Q: And the luciferase expression ([2]; Table 41, pGL3-ERK5-cds(x3), 33 nM)?
A: 77.9 percent untreated control

Q: What about the luciferase expression ([2]; Table 41, pGL3-ERK5-cds(x3), 100 nM) of the same substance?
A: 49.4 percent untreated control

Q: What about the luciferase expression ([2]; Table 41, pGL3-ERK5-cds(x5), 11 nM) of the same substance?
A: 49.4 percent untreated control

Q: What about the luciferase expression ([2]; Table 41, pGL3-ERK5-cds(x5), 33 nM) of the same substance?
A: 44.5 percent untreated control

Q: What about the luciferase expression ([2]; Table 41, pGL3-ERK5-cds(x5), 100 nM) of the same substance?
A: 23.9 percent untreated control
